# Laboratory results as given in PubChem BioAssay AID2060505 (Molecular Pharmacology Branch, DTP, NCI, 2025).
# Tested on: 633275-114-R-J1-PDC complex spheroids, viability
# Test: Anticancer human tumor 633275-114-R-J1-PDC patient-derived endometrial adenocarcinoma cell line growth inhibition [GQUAD]
# Details: for IC50: curve of first compound; for viability, T/C: stronger effect = lower value
# Summary of the method: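 Multi-cell-type spheroids of tumor cells with HUVEC and mesenchymal stem cells, treated with drug combinations. Concentrations descend in half-log steps from near clinical Cmax, or from 10 microM where Cmax is unknown; viability read-out.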
# [1] = second compound 0.0316 µM, first compound 0.0316 µM
# [2] = second compound 0.0316 µM, first compound 0.1 µM
# [3] = second compound 0.0316 µM, first compound 0.316 µM
# [4] = second compound 0.0316 µM, first compound 1 µM
# [5] = second compound 0.0316 µM, first compound 3.16 µM
# [6] = second compound 0.0316 µM, first compound 10 µM
# [7] = second compound 0.1 µM, first compound 0.0316 µM
# [8] = second compound 0.1 µM, first compound 0.1 µM
# [9] = second compound 0.1 µM, first compound 0.316 µM
# [10] = second compound 0.1 µM, first compound 1 µM
# [11] = second compound 0.1 µM, first compound 3.16 µM
# [12] = second compound 0.1 µM, first compound 10 µM
# [13] = second compound 0.316 µM, first compound 0.0316 µM
# [14] = second compound 0.316 µM, first compound 0.1 µM
# [15] = second compound 0.316 µM, first compound 0.316 µM
# [16] = second compound 0.316 µM, first compound 1 µM
# [17] = second compound 0.316 µM, first compound 3.16 µM
# [18] = second compound 0.316 µM, first compound 10 µM
# [19] = second compound 1 µM, first compound 0.0316 µM
# [20] = second compound 1 µM, first compound 0.1 µM
# [21] = second compound 1 µM, first compound 0.316 µM
# [22] = second compound 1 µM, first compound 1 µM
# [23] = second compound 1 µM, first compound 3.16 µM
# [24] = second compound 1 µM, first compound 10 µM
# [25] = second compound 3.16 µM, first compound 0.0316 µM
# [26] = second compound 3.16 µM, first compound 0.1 µM
# [27] = second compound 3.16 µM, first compound 0.316 µM
# [28] = second compound 3.16 µM, first compound 1 µM
# [29] = second compound 3.16 µM, first compound 3.16 µM
# [30] = second compound 3.16 µM, first compound 10 µM
# [31] = second compound 10 µM, first compound 0.0316 µM
# [32] = second compound 10 µM, first compound 0.1 µM
# [33] = second compound 10 µM, first compound 0.316 µM
# [34] = second compound 10 µM, first compound 1 µM
# [35] = second compound 10 µM, first compound 3.16 µM
# [36] = second compound 10 µM, first compound 10 µM
# 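Note: spheroids exposed to the agents for seven days.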
# 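Throughout, for viability, T/C: percent of DMSO vehicle control viability which is 100%.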
smiles,measurement,setting,value
C=CCn1c(=O)c2cnc(Nc3ccc(N4CCN(C)CC4)cc3)nc2n1-c1cccc(C(C)(C)O)n1 + Cc1[nH]c2ccc(F)cc2c1-c1nc2c3cccnc3c3ncccc3c2[nH]1,IC50,second compound 0.0316 µM,645 nM
same,IC50,second compound 0.1 µM,720 nM
same,IC50,second compound 0.316 µM,623 nM
same,IC50,second compound 1 µM,577 nM
same,IC50,second compound 3.16 µM,361 nM
same,IC50,second compound 10 µM,165 nM
same,"viability, T/C",[1],105%
same,"viability, T/C",[2],100%
same,"viability, T/C",[3],73.3%
same,"viability, T/C",[4],35.1%
same,"viability, T/C",[5],22.2%
same,"viability, T/C",[6],16.2%
same,"viability, T/C",[7],103%
same,"viability, T/C",[8],97.9%
same,"viability, T/C",[9],73.9%
same,"viability, T/C",[10],40.4%
same,"viability, T/C",[11],22.6%
same,"viability, T/C",[12],17.4%
same,"viability, T/C",[13],101%
same,"viability, T/C",[14],93.9%
same,"viability, T/C",[15],67.9%
same,"viability, T/C",[16],37.2%
same,"viability, T/C",[17],21.8%
same,"viability, T/C",[18],16%
same,"viability, T/C",[19],87.1%
same,"viability, T/C",[20],97.8%
same,"viability, T/C",[21],67.3%
same,"viability, T/C",[22],33.3%
same,"viability, T/C",[23],19.3%
same,"viability, T/C",[24],15.6%
same,"viability, T/C",[25],69.3%
same,"viability, T/C",[26],69.4%
same,"viability, T/C",[27],51.5%
same,"viability, T/C",[28],29.8%
same,"viability, T/C",[29],18.6%
same,"viability, T/C",[30],14.8%
same,"viability, T/C",[31],58.2%
same,"viability, T/C",[32],55%
same,"viability, T/C",[33],43.4%
same,"viability, T/C",[34],26.2%
same,"viability, T/C",[35],17.9%
same,"viability, T/C",[36],16.6%
CC(C)(O)C1CCC(Nc2ccc3ncc(-c4cccc(C(F)(F)F)c4)n3n2)CC1 (stereo unspecified) + Cc1[nH]c2ccc(F)cc2c1-c1nc2c3cccnc3c3ncccc3c2[nH]1,IC50,second compound 0.0316 µM,1970 nM
same,IC50,second compound 0.1 µM,2010 nM
same,IC50,second compound 0.316 µM,1780 nM
same,IC50,second compound 1 µM,1910 nM
same,IC50,second compound 3.16 µM,947 nM
same,IC50,second compound 10 µM,1070 nM
same,"viability, T/C",[1],108%
same,"viability, T/C",[2],103%
same,"viability, T/C",[3],112%
same,"viability, T/C",[4],75.2%
same,"viability, T/C",[5],32.2%
same,"viability, T/C",[6],32.6%
same,"viability, T/C",[7],98.7%
same,"viability, T/C",[8],103%
same,"viability, T/C",[9],101%
same,"viability, T/C",[10],79.7%
same,"viability, T/C",[11],28.9%
same,"viability, T/C",[12],32.5%
same,"viability, T/C",[13],95.5%
same,"viability, T/C",[14],99.1%
same,"viability, T/C",[15],90.5%
same,"viability, T/C",[16],70.2%
same,"viability, T/C",[17],27.5%
same,"viability, T/C",[18],32.6%
same,"viability, T/C",[19],89.6%
same,"viability, T/C",[20],95.6%
same,"viability, T/C",[21],86.8%
same,"viability, T/C",[22],74.2%
same,"viability, T/C",[23],31%
same,"viability, T/C",[24],27%
same,"viability, T/C",[25],72.6%
same,"viability, T/C",[26],75.5%
same,"viability, T/C",[27],69.9%
same,"viability, T/C",[28],49.3%
same,"viability, T/C",[29],27.4%
same,"viability, T/C",[30],26.1%
same,"viability, T/C",[31],65.2%
same,"viability, T/C",[32],69.8%
same,"viability, T/C",[33],62.6%
same,"viability, T/C",[34],52.1%
same,"viability, T/C",[35],24.1%
same,"viability, T/C",[36],21.5%
CCCS(=O)(=O)Nc1ccc(F)c(C(=O)c2c[nH]c3ncc(-c4ccc(Cl)cc4)cc23)c1F + Cc1[nH]c2ccc(F)cc2c1-c1nc2c3cccnc3c3ncccc3c2[nH]1,IC50,second compound 0.0316 µM,9540 nM
same,IC50,second compound 0.1 µM,9210 nM
same,IC50,second compound 0.316 µM,8580 nM
same,IC50,second compound 1 µM,8240 nM
same,IC50,second compound 3.16 µM,7090 nM
same,IC50,second compound 10 µM,> 10000 nM
same,"viability, T/C",[1],103%
same,"viability, T/C",[2],94.6%
same,"viability, T/C",[3],107%
same,"viability, T/C",[4],100%
same,"viability, T/C",[5],86.8%
same,"viability, T/C",[6],48.1%
same,"viability, T/C",[7],100%
same,"viability, T/C",[8],108%
same,"viability, T/C",[9],102%
same,"viability, T/C",[10],102%
same,"viability, T/C",[11],91.6%
same,"viability, T/C",[12],46.7%
same,"viability, T/C",[13],91.2%
same,"viability, T/C",[14],98.9%
same,"viability, T/C",[15],103%
same,"viability, T/C",[16],104%
same,"viability, T/C",[17],94.7%
same,"viability, T/C",[18],43.1%
same,"viability, T/C",[19],86.4%
same,"viability, T/C",[20],88.8%
same,"viability, T/C",[21],92.5%
same,"viability, T/C",[22],90.2%
same,"viability, T/C",[23],90.1%
same,"viability, T/C",[24],42%
same,"viability, T/C",[25],70.7%
same,"viability, T/C",[26],71.2%
same,"viability, T/C",[27],66.9%
same,"viability, T/C",[28],76.2%
same,"viability, T/C",[29],71.2%
same,"viability, T/C",[30],41%
same,"viability, T/C",[31],60.4%
same,"viability, T/C",[32],64.3%
same,"viability, T/C",[33],65.2%
same,"viability, T/C",[34],74.4%
same,"viability, T/C",[35],63.3%
same,"viability, T/C",[36],41.1%
